Measurements as given in PubChem BioAssay (NCI).
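Briefly, cells in 96-well plates were exposed to five compound concentrations for 48 h, and endpoints were estimated by linear interpolation. TGI marks complete inhibition of growth.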

How the values were obtained:
Assay in all cases: NCI tumour cell line growth inhibition, 48 h
[1] = test system: IGROV1 ovarian
[2] = test system: K-562 leukemia
[3] = test system: SK-MEL-5 melanoma
[4] = test system: UACC-62 melanoma
[5] = test system: SF-295 CNS
[6] = test system: OVCAR-4 ovarian
[7] = test system: MALME-3M melanoma
[8] = test system: NCI-H226 lung
[9] = test system: EKVX NSCLC
[10] = test system: MDA-MB-435
[11] = test system: T-47D breast
[12] = test system: HCT-116 colon
[13] = test system: SF-268 CNS
[14] = test system: DU-145 prostate
[15] = test system: TK-10 renal
[16] = test system: NCI-H23 lung
[17] = test system: HOP-92 NSCLC
[18] = test system: SW-620 colon
[19] = test system: SR leukemia
[20] = test system: PC-3 prostate
[21] = test system: NCI-H460 lung
[22] = test system: OVCAR-3 ovarian
[23] = test system: SNB-19 CNS
[24] = test system: HS 578T breast
[25] = test system: RPMI-8226 leukemia
[26] = test system: SK-MEL-2 melanoma
[27] = test system: U251 CNS
[28] = test system: ACHN renal
[29] = test system: HCT-15 colon
[30] = test system: SK-OV-3 ovarian
[31] = test system: SN12C renal
[32] = test system: BT-549 breast
[33] = test system: NCI/ADR-RES ovarian
[34] = test system: HOP-62 NSCLC
[35] = test system: SF-539 CNS
[36] = test system: OVCAR-8 ovarian
[37] = test system: MDA-N
[38] = test system: 786-0 renal
[39] = test system: HL-60(TB) leukemia
[40] = test system: COLO 205 colon
[41] = test system: UO-31 renal
[42] = test system: RXF 393 renal
[43] = test system: LOX IMVI melanoma
[44] = test system: SK-MEL-28 melanoma
[45] = test system: NCI-H522 lung
[46] = test system: MOLT-4 leukemia
[47] = test system: CCRF-CEM leukemia
[48] = test system: CAKI-1 renal
[49] = test system: KM12 colon
[50] = test system: MDA-MB-231 breast
[51] = test system: M14 melanoma
[52] = test system: OVCAR-5 ovarian
[53] = test system: HT29 colon
[54] = test system: A498 renal
[55] = test system: A549 NSCLC
[56] = test system: UACC-257 melanoma
[57] = test system: HCC-2998 colon
[58] = test system: SNB-75 CNS
[59] = test system: MCF7 breast

## C[C@H](NC1=CC(=O)C(N[C@@H](C)[C@H](O)c2ccccc2)=CC1=O)[C@H](O)c1ccccc1
[1]
  TGI: > 100 µM
[2]
  TGI: > 100 µM
[3]
  TGI: > 100 µM
[4]
  TGI: > 100 µM
[5]
  TGI: > 100 µM
[6]
  TGI: > 100 µM
[7]
  TGI: > 100 µM
[8]
  TGI: > 100 µM
[9]
  TGI: > 100 µM
[10]
  TGI: > 100 µM
[11]
  TGI: > 100 µM
[12]
  TGI: > 100 µM
[13]
  TGI: > 100 µM
[14]
  TGI: > 100 µM
[15]
  TGI: > 100 µM
[16]
  TGI: > 100 µM
[17]
  TGI: > 100 µM
[18]
  TGI: > 100 µM
[19]
  TGI: > 100 µM
[20]
  TGI: > 100 µM
[21]
  TGI: > 100 µM
[22]
  TGI: > 100 µM
[23]
  TGI: > 100 µM
[24]
  TGI: > 100 µM
[25]
  TGI: > 100 µM
[26]
  TGI: > 100 µM
[27]
  TGI: > 100 µM
[28]
  TGI: > 100 µM
[29]
  TGI: > 100 µM
[30]
  TGI: > 100 µM
[31]
  TGI: > 100 µM
[32]
  TGI: > 100 µM
[33]
  TGI: > 100 µM
[34]
  TGI: > 100 µM
[35]
  TGI: > 100 µM
[36]
  TGI: > 100 µM
[37]
  TGI: > 100 µM
[38]
  TGI: > 100 µM
[39]
  TGI: > 100 µM
[40]
  TGI: > 100 µM
[41]
  TGI: > 100 µM
[42]
  TGI: > 100 µM
[43]
  TGI: > 100 µM
[44]
  TGI: > 100 µM
[45]
  TGI: > 100 µM
[46]
  TGI: > 100 µM
[47]
  TGI: > 100 µM
[48]
  TGI: > 100 µM
[49]
  TGI: > 100 µM
[50]
  TGI: > 100 µM
[51]
  TGI: > 100 µM
[52]
  TGI: > 100 µM
[53]
  TGI: 63.7 µM
[54]
  TGI: > 100 µM
[55]
  TGI: > 100 µM
[56]
  TGI: > 100 µM

## COc1ccc2nc3cc(Cl)ccc3c(Nc3ccc(O)c(CN4CCN(C)CC4)c3)c2c1
[1]
  TGI: 3.3 µM
[2]
  TGI: 3.71 µM
[3]
  TGI: 3.11 µM
[4]
  TGI: 3.07 µM
[5]
  TGI: 3.81 µM
[57]
  TGI: 2.42 µM
[6]
  TGI: 3.19 µM
[7]
  TGI: 3.21 µM
[8]
  TGI: 38.9 µM
[9]
  TGI: 3.52 µM
[10]
  TGI: 3 µM
[58]
  TGI: 3.91 µM
[11]
  TGI: 4.48 µM
[12]
  TGI: 3.74 µM
[13]
  TGI: 6.42 µM
[14]
  TGI: 3.73 µM
[15]
  TGI: 3.79 µM
[18]
  TGI: 5.1 µM
[20]
  TGI: 3.22 µM
[21]
  TGI: 3.22 µM
[22]
  TGI: 3.76 µM
[23]
  TGI: 5.96 µM
[24]
  TGI: 4.65 µM
[25]
  TGI: 4.85 µM
[26]
  TGI: 3.29 µM
[27]
  TGI: 3.15 µM
[28]
  TGI: 3 µM
[29]
  TGI: 5.68 µM
[30]
  TGI: 11.1 µM
[31]
  TGI: 3.93 µM
[32]
  TGI: 38.6 µM
[34]
  TGI: 4.07 µM
[35]
  TGI: 3.22 µM
[59]
  TGI: 3.12 µM
[36]
  TGI: 3.56 µM
[37]
  TGI: 3.21 µM
[38]
  TGI: 3 µM
[39]
  TGI: 3.57 µM
[40]
  TGI: 3.04 µM
[41]
  TGI: 3.31 µM
[42]
  TGI: 3.22 µM
[44]
  TGI: 3.62 µM
[45]
  TGI: 3.33 µM
[46]
  TGI: 4.94 µM
[48]
  TGI: 3.98 µM
[49]
  TGI: 3.85 µM
[50]
  TGI: 2.99 µM
[51]
  TGI: 3.53 µM
[52]
  TGI: 5.34 µM
[53]
  TGI: 3.54 µM
[54]
  TGI: 8.68 µM
[55]
  TGI: 3.47 µM
[56]
  TGI: 3.45 µM

## NNC(=O)c1n[nH]n(N)c1=S
[1]
  TGI: > 100 µM
[2]
  TGI: > 100 µM
[3]
  TGI: > 100 µM
[4]
  TGI: > 100 µM
[5]
  TGI: > 100 µM
[57]
  TGI: > 100 µM
[6]
  TGI: > 100 µM
[7]
  TGI: > 100 µM
[8]
  TGI: > 100 µM
[9]
  TGI: > 100 µM
[10]
  TGI: > 100 µM
[58]
  TGI: > 100 µM
[11]
  TGI: > 100 µM
[12]
  TGI: > 100 µM
[13]
  TGI: > 100 µM
[14]
  TGI: > 100 µM
[15]
  TGI: > 100 µM
[16]
  TGI: > 100 µM
[18]
  TGI: > 100 µM
[20]
  TGI: > 100 µM
[21]
  TGI: > 100 µM
[22]
  TGI: > 100 µM
[24]
  TGI: > 100 µM
[25]
  TGI: > 100 µM
[26]
  TGI: > 100 µM
[27]
  TGI: > 100 µM
[28]
  TGI: > 100 µM
[29]
  TGI: > 100 µM
[30]
  TGI: > 100 µM
[31]
  TGI: > 100 µM
[32]
  TGI: > 100 µM
[33]
  TGI: > 100 µM
[34]
  TGI: > 100 µM
[35]
  TGI: > 100 µM
[36]
  TGI: > 100 µM
[37]
  TGI: > 100 µM
[38]
  TGI: > 100 µM
[40]
  TGI: > 100 µM
[41]
  TGI: > 100 µM
[42]
  TGI: > 100 µM
[43]
  TGI: > 100 µM
[44]
  TGI: > 100 µM
[45]
  TGI: > 100 µM
[46]
  TGI: > 100 µM
[47]
  TGI: > 100 µM
[48]
  TGI: > 100 µM
[49]
  TGI: > 100 µM
[50]
  TGI: > 100 µM
[51]
  TGI: > 100 µM
[52]
  TGI: > 100 µM
[53]
  TGI: > 100 µM
[54]
  TGI: > 100 µM
[55]
  TGI: > 100 µM
[56]
  TGI: > 100 µM
